“And” between values parts separate entries of the source, which are not always exact repeats. Equal entries are not always repeated. Where two headings read alike, the source gives them in different places.
Legend:
[1] = Toxicity analysis of test compounds in 2.2.15 cells (neutral red dye uptake); format: cell-based; conditions: human
Protocol: Toxicity analyses were performed in order to assess whether any observed antiviral effects are due to a general effect on cell viability. The method used was based on the uptake of neutral red dye, a standard and widely used assay for cell viability in a variety of virus-host systems, including HSV (herpes simplex virus) and HIV. Details of the procedure are provided in the toxicity table legends.
The test compounds were used in the form of 40 mM stock solutions in DMSO (frozen on dry ice). Daily aliquots of the test samples were made and frozen at -20° C. so that each individual aliquot would be subjected to a single freeze-thaw cycle. The daily test aliquots were thawed, suspended into culture medium at room temperature and immediately added to the cell cultures° The compounds were tested at 0.0 and 1 μM for antiviral activity. The compounds were tested for toxicity at concentrations up to 300 μM.
Toxicity analyses were performed in 96-well flat bottomed tissue culture plates. Cells for the toxicity analyses were cultured and treated with test compounds with the same schedule as used for the antiviral evaluations. Each compound was tested at 4 concentrations, each in triplicate cultures. Uptake of neutral red dye was used to determine the relative level of toxicity. The absorbance of internalized dye at […] (A510) was used for the quantitative analysis. Values are presented as a percentage of the average A510 values (±standard deviations) in 9 separate cultures of untreated cells maintained on the same 96-well plate as the test compounds.

[2] = tested on: HBV; experiment: Effect of nucleosides on HBV production in 2.2.15 cells (HBV virion DNA and intracellular HBV DNA); format: cell-based, Hepatitis B virus; conditions: for HBV virion DNA, day 0 / HBV virion DNA, day 3 / HBV virion DNA, day 6 / HBV virion DNA, day 9: individual culture; for HBV virion DNA, day 0, mean / HBV virion DNA, day 3, mean / HBV virion DNA, day 6, mean / HBV virion DNA, day 9, mean / Intracellular HBV DNA on Day 10, Mono, mean / Intracellular HBV DNA on Day 10, RI, mean: mean of 4 cultures; for inhibition at 1 µM / inhibition: Hepatitis B virus
Protocol: The ability of β-D-dioxolane-nucleosides to inhibit HBV can be measured by various experimental techniques. The assay used herein to evaluate the ability of the disclosed compounds to inhibit the replication of HBV is described in detail in Korba and Gerin, Antiviral Res. 19:55-70 (1992). […] The other compounds disclosed herein are evaluated similarly.
The antiviral evaluations were performed on two separate passages of cells, two cultures per passage (4 cultures total). All wells, in all plates, were seeded at the same density and at the same time.
Due to the inherent variations in the levels of both intracellular and extracellular HBV DNA, only depressions greater than 3.0-fold (for HBV virion DNA) or 2.5-fold (for HBV DNA replication intermediates) from the average levels for these HBV DNA forms in untreated cells are generally considered to be statistically significant [P<0.05] (Korba and Gerin, Antiviral Res. 19: 55-70, 1992). The levels of integrated HBV DNA in each cellular DNA preparation (which remain constant on a per cell basis in these experiments) were used to calculate the levels of intracellular HBV DNA forms, thereby eliminating technical variations inherent in the blot hybridization assays.
The test compounds were used in the form of 40 mM stock solutions in DMSO (frozen on dry ice). Daily aliquots of the test samples were made and frozen at -20° C. so that each individual aliquot would be subjected to a single freeze-thaw cycle. […] The compounds were tested for toxicity at concentrations up to 300 μM.

[3] = 0.1 μM, listed as (-)- -2,6-diNH2-purine-dioxolane
[4] = 1.0 μM ("1.0 M" printed for the 2,6-DiNH2 compound), listed as (-)- -2,6-DiNH2-purine-dioxolane
[5] = 1.0 μM ("1.0 M" printed for the 2,6-DiNH2 compound)
[6] = 0 h, 1.0 μM ("1.0 M" printed for the 2,6-DiNH2 compound), read-out: % inhibition, HBV virion DNA, day 0
[7] = 0 h, read-out: % inhibition, HBV virion DNA, day 0
[8] = 72 h, 1.0 μM ("1.0 M" printed for the 2,6-DiNH2 compound), read-out: % inhibition, HBV virion DNA, day 3
[9] = 72 h, read-out: % inhibition, HBV virion DNA, day 3
[10] = 144 h, 1.0 μM ("1.0 M" printed for the 2,6-DiNH2 compound), read-out: % inhibition, HBV virion DNA, day 6
[11] = 144 h, read-out: % inhibition, HBV virion DNA, day 6
[12] = 216 h, 1.0 μM ("1.0 M" printed for the 2,6-DiNH2 compound), read-out: % inhibition, HBV virion DNA, day 9
[13] = 216 h, read-out: % inhibition, HBV virion DNA, day 9
[14] = 240 h, 1.0 μM ("1.0 M" printed for the 2,6-DiNH2 compound), read-out: % inhibition, intracellular HBV DNA Mono, Day 10
[15] = 240 h, 1.0 μM ("1.0 M" printed for the 2,6-DiNH2 compound), read-out: % inhibition, intracellular HBV DNA RI, Day 10
[16] = 240 h, read-out: % inhibition, intracellular HBV DNA Mono, Day 10
[17] = 240 h, read-out: % inhibition, intracellular HBV DNA RI, Day 10
[18] = 0.1 μM, listed as (-)- -2,6-dioxolane-G
[19] = 1.0 μM ("1.0 M" printed for the 2,6-DiNH2 compound), listed as (-)- -2,6-dioxolane-G

Nc1nc(N)c2ncn([C@H]3CO[C@@H](CO)O3)c2n1 [DAPD, (-)-(2R,4R)-2-amino-9-[(2-hydroxymethyl)-1,3-dioxolan-4-yl]adenine]
viability at 10 µM [1]: 99 ± 1% | viability at 30 µM [1]: 99 ± 3% | viability at 100 µM [1]: 88 ± 1% | viability at 300 µM [1]: 49 ± 3% | HBV virion DNA, day 0 ([2]; 0.1 μM): 77 pg/ml of cultured medium | HBV virion DNA, day 0 [2, 3]: 52 pg/ml of cultured medium and 58 pg/ml of cultured medium and 64 pg/ml of cultured medium | HBV virion DNA, day 3 [2, 3]: 67 pg/ml of cultured medium and 59 pg/ml of cultured medium and 62 pg/ml of cultured medium | HBV virion DNA, day 6 [2, 3]: 28 pg/ml of cultured medium and 34 pg/ml of cultured medium and 35 pg/ml of cultured medium and 26 pg/ml of cultured medium | HBV virion DNA, day 9 [2, 3]: 5 pg/ml of cultured medium and 6 pg/ml of cultured medium and 9 pg/ml of cultured medium and 8 pg/ml of cultured medium | HBV virion DNA, day 0, mean ([2]; 0.1 μM): 62.75 pg/ml of cultured medium | HBV virion DNA, day 3, mean ([2]; 0.1 μM): 61.75 pg/ml of cultured medium | HBV virion DNA, day 6, mean ([2]; 0.1 μM): 30.75 pg/ml of cultured medium | HBV virion DNA, day 9, mean ([2]; 0.1 μM): 7.00 pg/ml of cultured medium | Intracellular HBV DNA on Day 10, Mono, mean ([2]; 0.1 μM): 2.35 pg/μM of cellular DNA | Intracellular HBV DNA on Day 10, RI, mean ([2]; 0.1 μM): 12.00 pg/μM of cellular DNA | HBV virion DNA, day 0 [2, 4]: 66 pg/ml of cultured medium and 70 pg/ml of cultured medium and 74 pg/ml of cultured medium and 61 pg/ml of cultured medium | HBV virion DNA, day 3 [2, 4]: 59 pg/ml of cultured medium and 45 pg/ml of cultured medium and 56 pg/ml of cultured medium and 43 pg/ml of cultured medium | HBV virion DNA, day 6 [2, 4]: 12 pg/ml of cultured medium and 10 pg/ml of cultured medium and 15 pg/ml of cultured medium and 11 pg/ml of cultured medium | HBV virion DNA, day 9 ([2]; 1.0 μM ("1.0 M" printed for the 2,6-DiNH2 compound), zero = undetectable, listed as (-)- -2,6-DiNH2-purine-dioxolane): 0 pg/ml of cultured medium and 1 pg/ml of cultured medium | HBV virion DNA, day 0, mean [2, 5]: 67.75 pg/ml of cultured medium | HBV virion DNA, day 3, mean [2, 5]: 50.75 pg/ml of cultured medium | HBV virion DNA, day 6, mean [2, 5]: 12.00 pg/ml of cultured medium | HBV virion DNA, day 9, mean [2, 5]: 0.25 pg/ml of cultured medium | Intracellular HBV DNA on Day 10, Mono, mean [2, 5]: 1.15 pg/μM of cellular DNA | Intracellular HBV DNA on Day 10, RI, mean [2, 5]: 2.25 pg/μM of cellular DNA | inhibition at 1 µM [2, 6]: -7.54% | inhibition [2, 7]: 0.4% | inhibition at 1 µM [2, 8]: 21.6% | inhibition [2, 9]: 4.63% | inhibition at 1 µM [2, 10]: 84.4% | inhibition [2, 11]: 59.9% | inhibition at 1 µM [2, 12]: 99.7% | inhibition [2, 13]: 90.6% | inhibition at 1 µM [2, 14]: 54.5% | inhibition at 1 µM [2, 15]: 96.9% | inhibition [2, 16]: 6.93% | inhibition [2, 17]: 83.7%

Nc1nc2c(ncn2[C@H]2CO[C@@H](CO)O2)c(=O)[nH]1 [Dioxolane-G, (-)-(2R,4R)-9-[(2-hydroxymethyl)-1,3-dioxolan-4-yl]guanine]
viability at 10 µM [1]: 100 ± 3% | viability at 30 µM [1]: 101 ± 2% | viability at 100 µM [1]: 88 ± 3% | viability at 300 µM [1]: 56 ± 3% | HBV virion DNA, day 0 [2, 18]: 51 pg/ml of cultured medium and 59 pg/ml of cultured medium and 74 pg/ml of cultured medium and 67 pg/ml of cultured medium | HBV virion DNA, day 3 [2, 18]: 77 pg/ml of cultured medium and 62 pg/ml of cultured medium and 73 pg/ml of cultured medium and 61 pg/ml of cultured medium | HBV virion DNA, day 6 [2, 18]: 60 pg/ml of cultured medium and 70 pg/ml of cultured medium and 69 pg/ml of cultured medium and 82 pg/ml of cultured medium | HBV virion DNA, day 9 [2, 18]: 18 pg/ml of cultured medium and 12 pg/ml of cultured medium and 14 pg/ml of cultured medium and 11 pg/ml of cultured medium | HBV virion DNA, day 0, mean ([2]; 0.1 μM): 62.75 pg/ml of cultured medium | HBV virion DNA, day 3, mean ([2]; 0.1 μM): 68.25 pg/ml of cultured medium | HBV virion DNA, day 6, mean ([2]; 0.1 μM): 70.25 pg/ml of cultured medium | HBV virion DNA, day 9, mean ([2]; 0.1 μM): 13.75 pg/ml of cultured medium | Intracellular HBV DNA on Day 10, Mono, mean ([2]; 0.1 μM): 2.35 pg/μM of cellular DNA | Intracellular HBV DNA on Day 10, RI, mean ([2]; 0.1 μM): 24.00 pg/μM of cellular DNA | HBV virion DNA, day 0 [2, 19]: 70 pg/ml of cultured medium and 50 pg/ml of cultured medium and 56 pg/ml of cultured medium and 73 pg/ml of cultured medium | HBV virion DNA, day 3 [2, 19]: 86 pg/ml of cultured medium and 59 pg/ml of cultured medium and 56 pg/ml of cultured medium and 62 pg/ml of cultured medium | HBV virion DNA, day 6 [2, 19]: 22 pg/ml of cultured medium and 24 pg/ml of cultured medium and 23 pg/ml of cultured medium and 20 pg/ml of cultured medium | HBV virion DNA, day 9 ([2]; 1.0 μM ("1.0 M" printed for the 2,6-DiNH2 compound), zero = undetectable, listed as (-)- -2,6-dioxolane-G): 2 pg/ml of cultured medium and 4 pg/ml of cultured medium and 3 pg/ml of cultured medium | HBV virion DNA, day 0, mean [2, 5]: 62.25 pg/ml of cultured medium | HBV virion DNA, day 3, mean [2, 5]: 66.75 pg/ml of cultured medium | HBV virion DNA, day 6, mean [2, 5]: 22.25 pg/ml of cultured medium | HBV virion DNA, day 9, mean [2, 5]: 2.75 pg/ml of cultured medium | Intracellular HBV DNA on Day 10, Mono, mean [2, 5]: 1.85 pg/μM of cellular DNA | Intracellular HBV DNA on Day 10, RI, mean [2, 5]: 4.75 pg/μM of cellular DNA | inhibition at 1 µM [2, 6]: 1.19% | inhibition [2, 7]: 0.4% | inhibition at 1 µM [2, 8]: -1.54% | inhibition [2, 9]: -5.41% | inhibition at 1 µM [2, 10]: 71% | inhibition [2, 11]: 8.47% | inhibition at 1 µM [2, 12]: 96.3% | inhibition [2, 13]: 81.5% | inhibition at 1 µM [2, 14]: 26.7% | inhibition at 1 µM [2, 15]: 93.5% | inhibition [2, 16]: 6.93% | inhibition [2, 17]: 67.3%

Source: patent US5444063A, “Enantiomerically pure β-D-dioxolane nucleosides with selective anti-Hepatitis B virus activity” (priority 1992, dated 1995)
